This passage reports AC50 and IC50 results from ChEMBL document CHEMBL1201862, “PubChem BioAssay data set” (2004).

Molecules are shown by their SMILES. Activity calls are given as the source filed them.

In one experiment the test system is HEK293. The experiment in a line: inhibitors of LMP1-driven NF-kB reporter, dose response, cell-based, HEK293, luciferase, cherry-pick (AID 588343). It is filed as functional. The settings on record: Homo sapiens.
The target of experiment [1] is Dual specificity tyrosine-phosphorylation-regulated kinase 1A (Rattus norvegicus, UniProt Q63470). It is filed as biochemical, Homo sapiens.
Experiment [2] can be described thus: off-target signal loss in HeLa-CEM21 co-culture – HeLa F-luc CTL cells, cherry-picked, counter-screen for HIV-1 Env fusion inhibitor project, dose response (AID 652040).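 Also: potency for signal decrease marking cytotoxic or nonspecific inhibition.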 In kind it is functional, cell-based.
The nature of experiment [3]: inhibitors of HIV Env-driven cell fusion, dose response, cherry-pick (AID 652057). It is filed as functional, cell-based.
Experiment [4] can be described thus: inhibitors of clade B AD8 Env fusion, dose response, cell-based, cherry-pick (AID 652062).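 Also: luciferase signal from cell-cell fusion driven by HIV-1 clade B AD8 Env; potency is for inhibitors of fusion seen as a drop in luminescence.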 In kind it is functional.
Experiment [5] is described as follows: ZM109 Env clade C HIV-1 fusion inhibitors, dose response, HeLa effector, CEM target cells, luciferase, cherry-pick (AID 652058). It is filed as functional, cell-based.
In experiment [6] the target is T1, Sentrin-specific protease 7 (Homo sapiens, UniProt Q9BQF6).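 Also: Luminescence-based dose-response confirmation of ultra-high-throughput screening hits, measuring inhibition of SENP7.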
T1 sequence (Q9BQF6 whole entry): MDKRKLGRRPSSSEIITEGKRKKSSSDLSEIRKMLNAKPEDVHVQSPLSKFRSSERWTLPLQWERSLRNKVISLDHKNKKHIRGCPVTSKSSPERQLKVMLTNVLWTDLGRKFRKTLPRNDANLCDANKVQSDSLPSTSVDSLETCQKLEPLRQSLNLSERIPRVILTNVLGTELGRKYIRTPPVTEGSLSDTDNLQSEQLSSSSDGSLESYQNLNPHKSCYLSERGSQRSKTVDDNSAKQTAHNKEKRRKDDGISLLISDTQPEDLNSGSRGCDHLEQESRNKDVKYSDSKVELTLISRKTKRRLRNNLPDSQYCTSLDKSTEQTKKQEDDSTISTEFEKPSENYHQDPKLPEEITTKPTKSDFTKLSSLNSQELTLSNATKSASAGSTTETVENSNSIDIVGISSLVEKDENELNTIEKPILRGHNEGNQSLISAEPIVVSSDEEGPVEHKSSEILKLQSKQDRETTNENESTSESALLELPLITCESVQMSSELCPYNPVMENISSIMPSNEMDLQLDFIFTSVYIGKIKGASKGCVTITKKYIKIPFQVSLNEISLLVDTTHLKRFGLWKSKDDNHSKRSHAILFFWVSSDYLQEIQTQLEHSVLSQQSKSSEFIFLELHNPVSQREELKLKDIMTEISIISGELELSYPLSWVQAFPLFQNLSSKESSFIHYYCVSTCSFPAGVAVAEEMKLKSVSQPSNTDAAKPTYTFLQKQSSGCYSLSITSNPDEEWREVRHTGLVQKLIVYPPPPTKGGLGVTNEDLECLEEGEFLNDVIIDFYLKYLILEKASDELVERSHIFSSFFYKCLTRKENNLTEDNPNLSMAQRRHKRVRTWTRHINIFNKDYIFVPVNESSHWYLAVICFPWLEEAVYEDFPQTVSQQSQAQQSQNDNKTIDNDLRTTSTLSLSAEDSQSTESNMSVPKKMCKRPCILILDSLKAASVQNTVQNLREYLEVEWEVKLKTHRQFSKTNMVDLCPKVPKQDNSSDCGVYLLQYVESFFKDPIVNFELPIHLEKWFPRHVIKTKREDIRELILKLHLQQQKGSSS
In kind it is functional.

The subject of the next experiment is HeLa. The experiment in a line: HeLa cell cytotoxicity, dose response, cytotoxicity control for MITF activator project, CellTiter-Glo luminescence, cherry-pick samples (AID 540259). In kind it is functional, cell-based. The settings on record: Homo sapiens. On the technique in general: In ATP-based viability assays light output follows the ATP content of the culture.

The target in a further experiment is T2, Caspase-3 (Homo sapiens, UniProt P42574).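 Also: Dose-response selectivity test against caspase-3 for candidate inhibitors of sentrin-specific proteases (SENPs).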
T2 sequence (P42574 whole entry): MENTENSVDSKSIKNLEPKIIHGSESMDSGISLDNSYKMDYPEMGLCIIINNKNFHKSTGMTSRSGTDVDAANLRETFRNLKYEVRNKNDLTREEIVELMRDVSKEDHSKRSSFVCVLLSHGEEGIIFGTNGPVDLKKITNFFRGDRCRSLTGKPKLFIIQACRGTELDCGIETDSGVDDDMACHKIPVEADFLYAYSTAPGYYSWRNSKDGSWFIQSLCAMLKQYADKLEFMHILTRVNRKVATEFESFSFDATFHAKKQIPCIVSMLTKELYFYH
It is filed as functional.

Experiment [7] has as its target T3, Sentrin-specific protease 6 (Homo sapiens, UniProt Q9GZR1).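 Also: Luminescence-based dose-response confirmatory assay of SENP6 inhibition, following up an ultra-high-throughput screen.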
T3 sequence (Q9GZR1 whole entry): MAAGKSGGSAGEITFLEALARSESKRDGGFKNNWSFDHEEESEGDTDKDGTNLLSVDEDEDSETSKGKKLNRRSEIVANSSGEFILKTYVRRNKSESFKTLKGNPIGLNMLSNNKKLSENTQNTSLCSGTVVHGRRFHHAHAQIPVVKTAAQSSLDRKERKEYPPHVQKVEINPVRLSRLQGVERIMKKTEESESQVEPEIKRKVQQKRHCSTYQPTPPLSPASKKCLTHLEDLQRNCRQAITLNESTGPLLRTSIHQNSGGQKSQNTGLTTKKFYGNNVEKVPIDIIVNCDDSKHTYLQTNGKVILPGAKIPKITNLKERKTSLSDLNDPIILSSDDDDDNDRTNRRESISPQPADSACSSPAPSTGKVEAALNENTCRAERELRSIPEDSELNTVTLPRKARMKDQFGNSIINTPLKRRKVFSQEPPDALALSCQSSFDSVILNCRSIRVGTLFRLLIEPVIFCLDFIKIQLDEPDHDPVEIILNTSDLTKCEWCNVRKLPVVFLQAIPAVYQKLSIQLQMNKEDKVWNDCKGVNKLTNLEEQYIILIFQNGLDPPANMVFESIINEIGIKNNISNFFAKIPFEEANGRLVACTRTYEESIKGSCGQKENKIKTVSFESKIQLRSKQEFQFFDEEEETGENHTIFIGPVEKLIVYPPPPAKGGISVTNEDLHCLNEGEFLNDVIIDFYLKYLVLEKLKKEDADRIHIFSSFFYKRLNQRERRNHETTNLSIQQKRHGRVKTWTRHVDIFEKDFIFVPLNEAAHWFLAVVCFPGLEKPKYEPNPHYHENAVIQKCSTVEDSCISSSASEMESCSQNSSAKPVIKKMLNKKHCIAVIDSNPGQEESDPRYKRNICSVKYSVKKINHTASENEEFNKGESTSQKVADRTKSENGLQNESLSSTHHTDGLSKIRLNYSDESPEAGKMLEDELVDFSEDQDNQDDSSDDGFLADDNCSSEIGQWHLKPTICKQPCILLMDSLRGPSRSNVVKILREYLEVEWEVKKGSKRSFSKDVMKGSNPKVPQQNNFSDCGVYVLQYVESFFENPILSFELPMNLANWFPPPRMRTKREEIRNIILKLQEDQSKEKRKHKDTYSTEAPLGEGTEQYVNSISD
It is filed as functional.

Experiment [8] concerns the target T4, Sentrin-specific protease 8 (Homo sapiens, UniProt Q96LD8).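 Also: luminescence read-out of SENP8 inhibition, dose-response confirmation following an ultra-high-throughput screen.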
T4 sequence (Q96LD8 whole entry): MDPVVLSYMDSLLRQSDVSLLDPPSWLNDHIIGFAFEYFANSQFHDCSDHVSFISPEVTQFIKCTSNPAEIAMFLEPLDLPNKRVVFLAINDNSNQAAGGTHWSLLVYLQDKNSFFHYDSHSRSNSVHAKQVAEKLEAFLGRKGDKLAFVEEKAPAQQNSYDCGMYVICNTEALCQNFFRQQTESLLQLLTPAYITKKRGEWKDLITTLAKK
It is filed as functional.

Experiment [9] addresses T5, Rac GTPase-activating protein 1 (Homo sapiens, UniProt Q9H0H5).
T5 sequence (Q9H0H5 whole entry): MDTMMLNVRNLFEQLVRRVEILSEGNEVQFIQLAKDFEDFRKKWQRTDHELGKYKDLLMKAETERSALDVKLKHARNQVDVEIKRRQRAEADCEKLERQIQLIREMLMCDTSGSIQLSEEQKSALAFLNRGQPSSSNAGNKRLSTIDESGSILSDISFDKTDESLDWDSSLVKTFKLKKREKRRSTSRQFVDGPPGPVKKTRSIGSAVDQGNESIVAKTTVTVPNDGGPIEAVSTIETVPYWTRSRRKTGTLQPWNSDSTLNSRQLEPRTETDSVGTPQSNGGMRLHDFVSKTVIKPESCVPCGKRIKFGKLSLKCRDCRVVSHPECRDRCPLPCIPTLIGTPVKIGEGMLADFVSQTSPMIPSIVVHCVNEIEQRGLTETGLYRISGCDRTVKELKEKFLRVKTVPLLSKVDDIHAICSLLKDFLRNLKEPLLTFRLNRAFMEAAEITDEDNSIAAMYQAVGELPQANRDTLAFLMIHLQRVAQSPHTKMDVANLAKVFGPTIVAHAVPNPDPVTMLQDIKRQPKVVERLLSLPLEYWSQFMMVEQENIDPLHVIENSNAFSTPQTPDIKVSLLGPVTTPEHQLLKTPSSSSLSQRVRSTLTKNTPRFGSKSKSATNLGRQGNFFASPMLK
The experiment is described as follows: MgcRacGAP GTPase-activating activity inhibitors, confirmation, biochemical, ADP Hunter fluorescence, primary and confirmatory (AID 624330). It is filed as functional.

For experiment [10], the target named is T6, Adenosylmethionine-8-amino-7-oxononanoate aminotransferase (Mycobacterium tuberculosis, UniProt P9WQ81).
T6 sequence (P9WQ81 whole entry): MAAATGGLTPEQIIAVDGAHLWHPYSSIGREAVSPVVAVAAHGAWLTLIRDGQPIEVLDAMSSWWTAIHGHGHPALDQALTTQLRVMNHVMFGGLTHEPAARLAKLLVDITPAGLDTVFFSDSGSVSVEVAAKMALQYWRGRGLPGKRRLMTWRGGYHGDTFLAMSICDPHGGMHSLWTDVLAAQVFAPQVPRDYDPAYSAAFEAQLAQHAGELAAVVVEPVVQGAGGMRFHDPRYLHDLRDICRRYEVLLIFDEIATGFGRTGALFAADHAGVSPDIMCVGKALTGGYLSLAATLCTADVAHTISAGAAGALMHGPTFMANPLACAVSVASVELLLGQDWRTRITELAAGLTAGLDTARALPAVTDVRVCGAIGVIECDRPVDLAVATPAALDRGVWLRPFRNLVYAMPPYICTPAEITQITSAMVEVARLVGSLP
The experiment is described as follows: Mycobacterium tuberculosis BioA enzyme inhibitor Measured in Biochemical System Using Plate Reader - 2163-02_Inhibitor_Dose_CherryPick_Activity. In kind it is functional, Mycobacterium tuberculosis UT205.

Experiment [11] concerns the target T7, Low molecular weight phosphotyrosine protein phosphatase (Homo sapiens, UniProt P24666).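 Also: Dose-response confirmation assay measuring inhibition of LMPTP enzyme activity by fluorescence intensity read-out.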
T7 sequence (P24666 whole entry): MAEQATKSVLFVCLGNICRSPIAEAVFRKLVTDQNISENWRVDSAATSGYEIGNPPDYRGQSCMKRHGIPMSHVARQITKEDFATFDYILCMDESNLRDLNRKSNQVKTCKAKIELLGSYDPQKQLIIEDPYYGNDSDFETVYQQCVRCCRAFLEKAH
In kind it is functional. The settings on record: read-out: IC50_Mean.

What is called AC50 is the concentration giving half of the maximal activity seen. Regarding `O=C(CSc1nnc(NC(=O)c2ccc3c(c2)OCO3)s1)NCc1ccco1`, in the experiment with HEK293, the AC50 is 2.65 µM (active).
For the molecule `Fc1ccc(NC(S)=Nc2cccc3cnccc23)cc1`, the AC50 in experiment [1] was 9.44 µM (active).
Turning to `O=C(CCCC(=O)N(c1ccc2c(c1)OCCO2)C(C(=O)NC1CCCCC1)c1ccc(F)cc1)Nc1ccccn1` (configuration not stated), the AC50 in experiment [2] was 42.5 µM (active); in experiment [3], 6.87 µM (active); in [4], 31.9 µM (active); in [5] it was 4.52 µM (active).
With `Cc1ccc(O)c(C2=Nc3ccccc3C2(C)C)c1`, the IC50 in experiment [6] is 4.9 µM (active); on Caspase-3, 22.5 µM (active); in experiment [7], 18.2 µM (active); in experiment [8], 26.9 µM (active). In addition, the AC50 in the experiment on HeLa is 31.6 µM (active).
Regarding `Cn1c(C(=O)NCC2CCCO2)cc2c(=O)n(C)c3ccccc3c21` (configuration not stated), the AC50 in [1] is 13.4 µM (active).
Consider `CCOc1cc(-c2nc3ccccc3s2)ccc1O`, for which, in experiment [9], the IC50 is 33.4 µM (active). In experiment [1], the AC50 was 5.92 µM (active).
In the case of `Cc1nc2ccccc2nc(C)c1=NOCc1cccc(Cl)c1`, the AC50 in experiment [2] was 11.6 µM (active); in [3] it was 10.3 µM (active); in [4] it was 0.421 µM (active); in [5], 13 µM (active).
As to `COc1ccc(F)cc1C(=O)C1CCCN(C(=O)c2ccc(C(C)=O)s2)C1` (configuration not stated), the AC50 in experiment [10] was 1.06 µM (active).
For the molecule `C[C@@]12C(=O)N(Cc3ccco3)CC(=O)N1[C@H]1c3ccccc3OC[C@@H]1[C@@H]2c1ccccc1`, the AC50 is 12.4 µM (active) in [2], 3.14 µM (active) in experiment [3] and 3.09 µM (active) in [5].
As for `CC(=O)c1c(C)[nH]c(C(=O)Nc2cccnc2)c1C`, in [10], the AC50 is 3 µM (active).
Turning to `C[C@@H]1CN([C@H](C)CO)C(=O)c2cc(C#Cc3cccnc3)cnc2O[C@H]1CN(C)S(C)(=O)=O`, the AC50 in [10] is 3.35 µM (active).
Take `CN(C)C(=O)C[C@@H]1C[C@H]2c3cc(NS(=O)(=O)c4ccc(F)cc4)ccc3O[C@H]2[C@H](CO)O1`: the AC50 in experiment [4] was 3.41 µM (active).
Consider `COc1ccc(C(=O)Nc2cccc(C(=O)N/N=C/c3ccc(OC)cc3OC)c2)cc1`, for which, in the experiment with HEK293, the AC50 was 1.79 µM (active).
Regarding `CN(C)c1ccc(/C=N/NC(=O)c2nnn(-c3nonc3N)c2COc2ccc(F)cc2)cc1`, the IC50 in experiment [11] is 12 µM (active).
